Measured values reported in US5741664A, “Subtilisin variants capable of cleaving substrates containing dibasic residues” (priority 1995, dated 1998).
Residues, ends and D or L forms follow the SMILES beside them.

Key:
[1] = target: T1, Bacillus amyloliquefaciens subtilisin BPN' variant N62D/G166D (mature enzyme SEQ ID NO: 72) (Bacillus amyloliquefaciens, UniProt P00782, G273D/N169D); experiment: hydrolysis of p-nitroanilide tetrapeptide substrates, initial rates; type: biochemical; details: suc-AAXX-pna series; 20 mM Tris-Cl pH 8.2, 4% DMSO, 25 C
T1 construct: made in house; host or cells: Bacillus subtilis BG2036 (secreted, purified from culture supernatant)
T1 sequence (P00782 108-382 N169D/G273D): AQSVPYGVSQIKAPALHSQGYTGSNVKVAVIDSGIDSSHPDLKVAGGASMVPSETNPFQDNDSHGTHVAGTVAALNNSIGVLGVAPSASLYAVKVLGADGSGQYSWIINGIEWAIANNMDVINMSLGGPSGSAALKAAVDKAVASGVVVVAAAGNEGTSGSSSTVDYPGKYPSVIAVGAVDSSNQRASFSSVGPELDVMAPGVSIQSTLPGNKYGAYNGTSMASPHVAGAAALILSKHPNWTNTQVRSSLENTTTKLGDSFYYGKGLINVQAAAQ
Description: (§1) Despite the less than additive effects seen for the two charged substitutions in the S2 site, we decided to combine the best S2 site variant (N62D) with either of the acidic substitutions in the S1 site. The two double mutants, N62D/G166E and N62D/G166D, were analyzed with substrates having the form, suc-AAXX-pna (SEQ ID NO: 71) where XX was either KK (SEQ ID NO: 66), KR (SEQ ID NO: 67), KF (SEQ ID NO: 62), PK (SEQ ID NO: 58), PF (SEQ ID NO: 56) or AF (SEQ ID NO: 63)(FIG. 4). The wild-type preference was AF>PF~KF>KK~PK>KR, whereas the double mutants had the preference KK>KR>KF>PK~AF>PF. […]
(§2) Subtilisins were assayed by measuring the initial rates of hydrolysis of p-nitroanilide tetrapeptide substrates in 0.4 mL 20 mM Tris-Cl pH 8.2, 4 % (v/v) dimethyl sulfoxide at (25±0.2)° C. as described previously (Estell, D. A., Graycar, T. P., Miller, J. V., Powers, D. B., Burnier, J. P., Ng, P. G. and Wells, J. A. [1986] Science 233:659-663). Enzyme concentrations [E]0 were determined spectrophotometrically using E280 nm 0.1%=1.17 (Matsubara, H.; Kasper, C B.; Brown, D. M.; and Smith, E. L. (1965) J. Biol. Chem.,240:1125-1130.), and were typically 5-50 nM in reactions. Initial rates were determined for nine to twelve different substrate concentrations over the range of 0.001-2.0 mM. […]

[2] = target: T2, Bacillus amyloliquefaciens subtilisin BPN' variant N62D/G166E (Bacillus amyloliquefaciens, UniProt P00782, G273E/N169D); experiment: as above; type: biochemical; details: suc-AAXX-pna series; 20 mM Tris-Cl pH 8.2, 4% DMSO, 25 C
T2 construct: made in house; host or cells: Bacillus subtilis BG2036 (secreted, purified from culture supernatant)
T2 sequence (P00782 108-382 N169D/G273E): as the sequence (P00782 108-382 N169D/G273D) above, with D166E counted along it
Description: as §1, §2

[3] = target: T3, Bacillus amyloliquefaciens subtilisin BPN' variant G166D (Bacillus amyloliquefaciens, UniProt P00782, G273D); experiment: as above; type: biochemical; details: suc-AAPX-pna series; 20 mM Tris-Cl pH 8.2, 4% DMSO, 25 C
T3 construct: made in house; host or cells: Bacillus subtilis BG2036 (secreted, purified from culture supernatant)
T3 sequence (P00782 108-382 G273D): as the sequence (P00782 108-382 N169D/G273D) above, with D62N counted along it
Description: To probe the effects of the G166E and G166D on specificity at the P1 position we used substrates having the form suc-AAPX-pna (SEQ ID NO: 69) where X was either Lys (SEQ ID NO: 58), Arg (SEQ ID NO: 59), Phe (SEQ ID NO: 56), Met (SEQ ID NO: 60) or Gln (SEQ ID NO: 61). Whereas the wild-type enzyme preferred Phe>Met>Lys>Arg>Gln, the G166E preferred Lys~Phe>Arg~Met>Gln, and G166D preferred Lys>Phe~Arg~Met>Gln. Thus, both the acidic substitutions at position 166 caused a shift in preference for basic residues as previously reported (Wells, J. A., Powers, D. B., Bott, R. R., Graycar, T. P. and Estell, D. A. (1987a), Proc. Natl. Acad. Sci. USA 84:1219-1223).
as §2

[4] = target: T4, subtilisin (subtilisin BPN' from Bacillus amyloliquefaciens, wild type) (Bacillus amyloliquefaciens, UniProt P00782); details: subtilisin cleaving suc-AAPF-pna; Estell et al. 1986; cited from earlier work
T4 sequence (P00782 108-382): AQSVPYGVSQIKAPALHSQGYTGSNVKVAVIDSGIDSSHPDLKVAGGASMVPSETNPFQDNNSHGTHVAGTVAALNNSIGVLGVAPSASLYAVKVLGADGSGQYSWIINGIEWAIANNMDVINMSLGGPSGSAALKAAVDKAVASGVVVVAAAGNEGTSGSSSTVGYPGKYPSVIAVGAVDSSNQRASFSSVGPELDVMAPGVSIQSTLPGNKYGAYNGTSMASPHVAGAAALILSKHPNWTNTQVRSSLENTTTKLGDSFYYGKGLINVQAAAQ

[5] = target: T5, KEX2 (yeast pro-hormone processing protease) (Saccharomyces cerevisiae, UniProt P13134); details: KEX2 cleaving Boc-RVRR-MCA; Brenner and Fuller 1992; cited from earlier work
T5 sequence (P13134 114-613 limits assumed): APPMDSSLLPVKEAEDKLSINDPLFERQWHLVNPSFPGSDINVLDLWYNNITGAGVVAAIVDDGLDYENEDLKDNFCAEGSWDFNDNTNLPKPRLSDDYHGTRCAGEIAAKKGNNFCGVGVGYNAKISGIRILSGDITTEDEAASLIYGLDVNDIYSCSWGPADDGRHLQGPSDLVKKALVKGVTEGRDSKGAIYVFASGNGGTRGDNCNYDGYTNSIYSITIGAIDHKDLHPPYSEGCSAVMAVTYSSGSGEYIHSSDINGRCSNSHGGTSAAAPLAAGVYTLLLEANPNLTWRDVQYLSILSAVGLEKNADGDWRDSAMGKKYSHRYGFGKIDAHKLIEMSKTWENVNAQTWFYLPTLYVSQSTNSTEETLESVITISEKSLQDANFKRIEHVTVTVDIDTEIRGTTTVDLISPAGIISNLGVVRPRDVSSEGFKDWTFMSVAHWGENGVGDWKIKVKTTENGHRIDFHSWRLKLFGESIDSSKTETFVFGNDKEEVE

**Q.** What does the source list for `C[C@H](NC(=O)CCC(=O)O)C(=O)N[C@@H](C)C(=O)N[C@@H](CCCCN)C(=O)N[C@@H](CCCCN)C(=O)Nc1ccc([N+](=O)[O-])cc1` [Lys-Lys substrate] (HELM PEPTIDE1{[O=C(O)CCC(=O)[*:2]].A.A.K.K.[O=[N+]([O-])c1ccc(N[*:1])cc1]}$$$$V2.0)?
**A.** ratio of catalytic efficiencies (kcat/Km), Lys-Lys substrate versus Lys-Phe substrate [1]: 18 times faster; ratio of catalytic efficiencies (kcat/Km), Lys-Lys substrate versus Lys-Phe substrate [2]: about 8 times faster

**Q.** With `C[C@H](NC(=O)CCC(=O)O)C(=O)N[C@@H](C)C(=O)N1CCC[C@H]1C(=O)N[C@@H](CCCCN)C(=O)Nc1ccc([N+](=O)[O-])cc1` [Lys P1 substrate] (HELM PEPTIDE1{[O=C(O)CCC(=O)[*:2]].A.A.P.K.[O=[N+]([O-])c1ccc(N[*:1])cc1]}$$$$V2.0) as the compound, how does the “ratio of catalytic efficiencies (kcat/Km), Lys P1 substrate versus Phe P1 substrate” value [3] read?
**A.** about 3 times faster

**Q.** With `C[C@H](NC(=O)CCC(=O)O)C(=O)N[C@@H](C)C(=O)N1CCC[C@H]1C(=O)N[C@@H](Cc1ccccc1)C(=O)Nc1ccc([N+](=O)[O-])cc1` [suc-AAPF-pna, N-succinyl-alanine-alanine-proline-phenylalanyl-p-nitroanalide] (HELM PEPTIDE1{[O=C(O)CCC(=O)[*:2]].A.A.P.F.[O=[N+]([O-])c1ccc(N[*:1])cc1]}$$$$V2.0) as the compound, how does the kcat/Km [4] read?
**A.** 300000 M⁻¹ s⁻¹

**Q.** Which kcat/Km [5] does the source give for `Cc1cc(=O)oc2cc(NC(=O)[C@H](CCCNC(=N)N)NC(=O)[C@H](CCCNC(=N)N)NC(=O)[C@@H](NC(=O)[C@H](CCCNC(=N)N)NC(=O)OC(C)(C)C)C(C)C)ccc12` [Boc-RVRR-MCA, N-t-butoxy carbonyl-arginine-valine-arginine-arginine-7-amido-4-methyl coumarin] (HELM PEPTIDE1{[CC(C)(C)OC(=O)[*:2]].R.V.R.R.[Cc1cc(=O)oc2cc(N[*:1])ccc12]}$$$$V2.0) here?
**A.** 1e+06 M⁻¹ s⁻¹
